The values that follow are results of earlier work, collected in patent US20050059087A1, “Antibodies directed to the deletion mutants of epidermal growth factor receptor and uses thereof” (priority 2003, published 2005).

For one data set, the system named is L1210 cells. As to conditions: treatment of L1210 cells in vivo; cited from earlier work.
In data set [1] the test system is P388, L1210, and LY5178 murine leukemic cell suspensions. To be noted: in vitro; cited from earlier work.
Data set [2] has as its system human acute lymphoblastic leukemia line CEM. To be noted: in vitro; cited from earlier work.
For data set [3], the system named is P388 lymphocytic leukemia system. To be noted: in vivo; cited from earlier work.
The conditions of data set [4]: vs methotrexate, daunorubicin, vincristine; cited from earlier work.

Structures are written as SMILES.

As for `COc1cc2cc(c1Cl)N(C)C(=O)C[C@H](OC(=O)[C@H](C)N(C)C(C)=O)[C@]1(C)O[C@H]1[C@H](C)[C@@H]1C[C@@](O)(NC(=O)O1)[C@H](OC)/C=C/C=C(\C)C2` [Maytansine], in the data set with L1210 cells, the “Cells accumulating in mitosis” value is reported as 67%. Besides, the Inhibitory doses in data set [1] is reported as 10^−3 to 10^−1 µg/µl. Besides, in data set [2], the Inhibitory concentration is ≥ 10^−7 mg/ml. Besides, in data set [3], the “Dosage range over which tumor growth was inhibited” value is reported as 50- to 100 fold. Further, the “Cytotoxicity relative to conventional cancer chemotherapeutic agents” value in data set [4] is 100 to 1000 fold.
